Measurements from ChEMBL document CHEMBL5696442, “Discovery of type II inhibitors of TGFβ-activated kinase 1 (TAK1) and mitogen-activated protein kinase kinase kinase kinase 2 (MAP4K2)” (J Med Chem, 2015).

Assays:
[1] = biological target: Mitogen-activated protein kinase 10 (Homo sapiens, UniProt P53779); assay: Inhibition of JNK3 (unknown origin) at 10 uM by Ambit Kinomescan binding assay relative to control
[2] = biological target: Dual specificity mitogen-activated protein kinase kinase 1 (Homo sapiens) (UniProt Q02750); assay: Inhibition of MAP2K1 Lys1 labeling site in human A-375 cells at 5 uM by KiNativ Profiling analysis relative to control; format: cell-based
[3] = biological target: Mitogen-activated protein kinase 3 (Homo sapiens) (UniProt P27361); assay: Inhibition of Erk1 Lys2 labeling site harbouring DLKPSNLLINTTCDLK in human A-375 cells at 0.05 uM by KiNativ Profiling analysis relative to control; format: cell-based
[4] = biological target: T1, Inhibitor of nuclear factor kappa-B kinase subunit alpha (Homo sapiens) (UniProt O15111); assay: Inhibition of IKK-alpha (unknown origin) at 10 uM by Ambit Kinomescan binding assay relative to control; values are per cent of control
T1 sequence (whole entry): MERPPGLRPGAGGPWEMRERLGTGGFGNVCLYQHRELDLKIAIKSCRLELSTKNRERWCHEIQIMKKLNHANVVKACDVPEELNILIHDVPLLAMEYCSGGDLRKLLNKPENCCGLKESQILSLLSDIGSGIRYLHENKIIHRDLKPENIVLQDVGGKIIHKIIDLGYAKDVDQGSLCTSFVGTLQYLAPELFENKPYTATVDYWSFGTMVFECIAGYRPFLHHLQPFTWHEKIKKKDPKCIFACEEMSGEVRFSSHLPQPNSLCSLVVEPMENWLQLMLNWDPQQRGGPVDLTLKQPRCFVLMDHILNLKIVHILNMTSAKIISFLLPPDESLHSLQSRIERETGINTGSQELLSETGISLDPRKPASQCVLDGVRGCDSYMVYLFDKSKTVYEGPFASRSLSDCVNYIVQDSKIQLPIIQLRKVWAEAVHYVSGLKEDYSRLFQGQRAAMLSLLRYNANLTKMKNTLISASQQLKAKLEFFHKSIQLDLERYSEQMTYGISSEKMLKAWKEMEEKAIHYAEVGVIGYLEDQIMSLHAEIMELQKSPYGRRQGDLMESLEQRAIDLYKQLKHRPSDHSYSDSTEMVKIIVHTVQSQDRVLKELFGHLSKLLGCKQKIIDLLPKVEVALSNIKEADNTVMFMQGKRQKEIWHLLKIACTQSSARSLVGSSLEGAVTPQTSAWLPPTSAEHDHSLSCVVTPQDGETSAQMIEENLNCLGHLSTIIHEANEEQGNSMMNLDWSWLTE

[5] = biological target: Tyrosine-protein kinase JAK1 (Homo sapiens) (UniProt P23458); assay: Inhibition of JAK1 JH1catalytic domain (unknown origin) at 1 uM by Ambit Kinomescan binding assay relative to control
[6] = biological target: Proto-oncogene tyrosine-protein kinase ROS (Homo sapiens) (UniProt P08922); assay: Inhibition of ROS1 (unknown origin) at 1 uM by Ambit Kinomescan binding assay relative to control
[7] = biological target: Megakaryocyte-associated tyrosine-protein kinase (Homo sapiens) (UniProt P42679); assay: Inhibition of CTK (unknown origin) at 1 uM by Ambit Kinomescan binding assay relative to control; values are per cent of control
[8] = biological target: T2, Serine/threonine-protein kinase TBK1 (Homo sapiens) (UniProt Q9UHD2); assay: Inhibition of TBK1 Lys2 labeling site in human A-375 cells at 5 uM by KiNativ Profiling analysis relative to control; format: cell-based
T2 sequence (whole entry): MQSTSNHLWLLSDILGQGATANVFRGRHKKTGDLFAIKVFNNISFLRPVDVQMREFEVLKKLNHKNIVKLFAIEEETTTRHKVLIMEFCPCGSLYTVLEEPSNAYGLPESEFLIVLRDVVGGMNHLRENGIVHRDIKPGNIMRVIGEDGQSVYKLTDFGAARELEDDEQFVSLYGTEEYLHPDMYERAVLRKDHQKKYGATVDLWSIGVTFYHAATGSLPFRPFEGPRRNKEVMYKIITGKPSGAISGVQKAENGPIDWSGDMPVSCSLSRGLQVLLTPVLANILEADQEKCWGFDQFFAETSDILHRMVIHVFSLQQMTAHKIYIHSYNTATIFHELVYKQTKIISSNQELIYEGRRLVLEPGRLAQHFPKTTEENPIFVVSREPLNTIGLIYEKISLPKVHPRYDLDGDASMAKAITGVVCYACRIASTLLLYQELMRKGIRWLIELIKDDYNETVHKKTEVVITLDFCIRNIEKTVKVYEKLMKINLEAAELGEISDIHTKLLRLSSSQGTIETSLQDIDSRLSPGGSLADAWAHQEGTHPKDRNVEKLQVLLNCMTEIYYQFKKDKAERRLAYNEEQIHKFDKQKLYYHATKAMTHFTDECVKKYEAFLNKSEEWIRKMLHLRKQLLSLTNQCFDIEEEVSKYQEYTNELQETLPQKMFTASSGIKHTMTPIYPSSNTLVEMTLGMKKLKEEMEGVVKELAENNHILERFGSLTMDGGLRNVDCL

[9] = biological target: 5'-AMP-activated protein kinase catalytic subunit alpha-2 (Homo sapiens) (UniProt P54646); assay: Inhibition of AMPKa2 Lys2 labeling site in human A-375 cells at 0.5 uM by KiNativ Profiling analysis relative to control; format: cell-based
[10] = biological target: Phosphatidylinositol 4-phosphate 5-kinase type-1 alpha (Homo sapiens) (UniProt Q99755); assay: Inhibition of PIP5K1A (unknown origin) at 1 uM by Ambit Kinomescan binding assay relative to control; values are per cent of control
[11] = biological target: Serine/threonine-protein kinase PAK 6 (Homo sapiens) (UniProt Q9NQU5); assay: Inhibition of PAK6 (unknown origin) at 1 uM by Ambit Kinomescan binding assay relative to control; values are per cent of control
[12] = biological target: Phosphatidylinositol 4-kinase beta (Homo sapiens) (UniProt Q9UBF8); assay: Inhibition of PI4KB ATP labeling site harbouring VPHTQAVVLNSKDK in human A-375 cells at 0.05 uM by KiNativ Profiling analysis relative to control; format: cell-based
[13] = biological target: Ephrin type-A receptor 3 (Homo sapiens) (UniProt P29320); assay: Inhibition of EPHA3 (unknown origin) at 1 uM by Ambit Kinomescan binding assay relative to control; values are per cent of control
[14] = biological target: Protein kinase C alpha type (Homo sapiens) (UniProt P17252); assay: Inhibition of PKCa Lys2 labeling site in human Huh-7 cell lysate at 1 uM by KiNativ Profiling analysis relative to control; format: subcellular
[15] = biological target: Casein kinase I isoform delta (Homo sapiens) (UniProt P48730); assay: Inhibition of CK1delta Lys2 labeling site in human Huh-7 cell lysate at 1 uM by KiNativ Profiling analysis relative to control; format: subcellular
[16] = Inhibition of p70S6K ATP Loop labeling site in human Huh-7 cells at 1 uM by KiNativ Profiling analysis relative to control; conditions: condition cancer

Sequence of Proto-oncogene tyrosine-protein kinase ROS (Homo sapiens) (P08922 whole entry): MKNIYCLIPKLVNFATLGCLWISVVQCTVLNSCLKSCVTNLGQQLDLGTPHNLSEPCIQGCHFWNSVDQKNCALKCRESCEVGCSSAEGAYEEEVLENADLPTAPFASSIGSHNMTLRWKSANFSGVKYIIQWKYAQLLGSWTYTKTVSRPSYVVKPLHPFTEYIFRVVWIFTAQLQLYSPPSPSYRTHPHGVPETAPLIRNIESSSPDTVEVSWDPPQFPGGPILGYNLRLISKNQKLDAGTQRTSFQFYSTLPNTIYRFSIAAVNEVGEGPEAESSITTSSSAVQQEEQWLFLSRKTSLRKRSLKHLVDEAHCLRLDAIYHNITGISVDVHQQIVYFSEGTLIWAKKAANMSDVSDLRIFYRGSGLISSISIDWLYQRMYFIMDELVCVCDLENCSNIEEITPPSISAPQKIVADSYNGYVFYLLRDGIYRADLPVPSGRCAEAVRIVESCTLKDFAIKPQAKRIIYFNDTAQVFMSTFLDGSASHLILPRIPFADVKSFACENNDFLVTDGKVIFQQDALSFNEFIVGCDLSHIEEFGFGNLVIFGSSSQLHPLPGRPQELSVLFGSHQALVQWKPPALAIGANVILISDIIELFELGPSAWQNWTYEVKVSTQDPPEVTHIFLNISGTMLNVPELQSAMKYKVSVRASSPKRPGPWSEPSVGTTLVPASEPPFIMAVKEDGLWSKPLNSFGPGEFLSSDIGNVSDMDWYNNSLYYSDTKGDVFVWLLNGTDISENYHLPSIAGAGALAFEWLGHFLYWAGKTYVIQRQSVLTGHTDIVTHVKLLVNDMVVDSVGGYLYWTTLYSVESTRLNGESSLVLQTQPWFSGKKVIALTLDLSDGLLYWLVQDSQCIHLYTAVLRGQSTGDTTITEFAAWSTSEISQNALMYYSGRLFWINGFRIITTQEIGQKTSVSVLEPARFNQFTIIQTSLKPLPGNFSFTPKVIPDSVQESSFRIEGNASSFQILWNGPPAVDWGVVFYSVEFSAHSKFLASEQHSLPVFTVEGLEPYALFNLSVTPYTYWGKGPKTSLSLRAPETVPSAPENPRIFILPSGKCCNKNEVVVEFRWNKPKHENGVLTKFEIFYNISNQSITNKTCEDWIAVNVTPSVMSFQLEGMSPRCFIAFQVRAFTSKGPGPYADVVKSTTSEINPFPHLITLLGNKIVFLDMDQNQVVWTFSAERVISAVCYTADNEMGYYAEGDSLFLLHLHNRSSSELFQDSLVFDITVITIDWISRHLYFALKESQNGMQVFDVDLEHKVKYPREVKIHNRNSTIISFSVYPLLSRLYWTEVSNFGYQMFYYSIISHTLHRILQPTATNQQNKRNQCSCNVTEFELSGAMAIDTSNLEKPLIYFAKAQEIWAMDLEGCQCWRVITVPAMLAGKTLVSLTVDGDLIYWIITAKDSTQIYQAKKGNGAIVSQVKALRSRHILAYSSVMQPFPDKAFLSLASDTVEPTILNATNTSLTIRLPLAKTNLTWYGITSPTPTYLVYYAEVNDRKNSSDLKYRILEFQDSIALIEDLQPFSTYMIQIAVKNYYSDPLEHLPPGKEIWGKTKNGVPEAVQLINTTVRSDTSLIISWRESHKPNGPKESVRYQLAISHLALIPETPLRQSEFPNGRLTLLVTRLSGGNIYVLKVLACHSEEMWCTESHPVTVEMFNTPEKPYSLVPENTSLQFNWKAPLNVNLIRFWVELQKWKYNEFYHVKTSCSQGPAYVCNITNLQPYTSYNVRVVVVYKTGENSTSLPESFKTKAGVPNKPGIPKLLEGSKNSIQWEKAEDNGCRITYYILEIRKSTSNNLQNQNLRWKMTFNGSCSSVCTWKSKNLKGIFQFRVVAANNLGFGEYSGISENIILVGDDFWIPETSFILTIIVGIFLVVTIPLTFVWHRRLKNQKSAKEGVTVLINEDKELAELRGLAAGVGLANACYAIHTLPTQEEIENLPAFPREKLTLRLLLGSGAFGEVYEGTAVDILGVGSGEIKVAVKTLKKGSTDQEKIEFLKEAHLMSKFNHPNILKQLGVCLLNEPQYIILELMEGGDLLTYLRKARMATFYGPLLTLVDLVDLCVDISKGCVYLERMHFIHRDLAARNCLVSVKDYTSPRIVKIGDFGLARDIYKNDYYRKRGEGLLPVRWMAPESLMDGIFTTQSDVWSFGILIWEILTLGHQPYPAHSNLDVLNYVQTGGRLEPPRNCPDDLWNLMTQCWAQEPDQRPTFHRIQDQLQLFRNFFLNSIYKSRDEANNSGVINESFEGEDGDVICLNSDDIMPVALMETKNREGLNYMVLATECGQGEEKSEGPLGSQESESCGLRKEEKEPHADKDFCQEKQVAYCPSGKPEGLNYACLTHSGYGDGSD
Sequence of Casein kinase I isoform delta (Homo sapiens) (P48730 whole entry, looked up, canonical isoform): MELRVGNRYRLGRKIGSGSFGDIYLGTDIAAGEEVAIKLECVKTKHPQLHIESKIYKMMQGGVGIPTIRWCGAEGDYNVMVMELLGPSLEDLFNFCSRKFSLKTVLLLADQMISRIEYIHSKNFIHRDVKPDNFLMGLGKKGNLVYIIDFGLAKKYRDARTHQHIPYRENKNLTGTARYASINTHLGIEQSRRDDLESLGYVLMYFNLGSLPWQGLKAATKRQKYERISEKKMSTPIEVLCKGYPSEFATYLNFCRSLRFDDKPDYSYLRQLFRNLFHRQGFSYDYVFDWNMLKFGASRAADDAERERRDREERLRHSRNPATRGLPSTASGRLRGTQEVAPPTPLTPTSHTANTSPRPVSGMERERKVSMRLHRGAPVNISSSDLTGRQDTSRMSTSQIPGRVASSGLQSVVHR
Sequence of 5'-AMP-activated protein kinase catalytic subunit alpha-2 (Homo sapiens) (P54646 whole entry, looked up): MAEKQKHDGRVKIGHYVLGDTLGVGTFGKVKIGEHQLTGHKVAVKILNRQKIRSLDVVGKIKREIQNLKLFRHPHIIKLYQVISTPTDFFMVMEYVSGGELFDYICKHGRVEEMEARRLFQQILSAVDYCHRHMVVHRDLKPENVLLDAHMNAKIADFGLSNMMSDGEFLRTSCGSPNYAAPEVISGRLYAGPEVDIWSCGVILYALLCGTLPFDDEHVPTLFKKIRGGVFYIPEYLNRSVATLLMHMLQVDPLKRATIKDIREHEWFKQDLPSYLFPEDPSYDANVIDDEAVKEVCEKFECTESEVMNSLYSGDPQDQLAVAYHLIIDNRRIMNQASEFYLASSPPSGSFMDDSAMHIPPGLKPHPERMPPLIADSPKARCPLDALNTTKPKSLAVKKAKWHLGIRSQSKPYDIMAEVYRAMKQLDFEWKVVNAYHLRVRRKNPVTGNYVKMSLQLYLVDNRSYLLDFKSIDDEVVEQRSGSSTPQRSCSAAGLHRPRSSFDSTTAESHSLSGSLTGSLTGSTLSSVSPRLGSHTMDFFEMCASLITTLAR
Sequence of Phosphatidylinositol 4-phosphate 5-kinase type-1 alpha (Homo sapiens) (Q99755 whole entry): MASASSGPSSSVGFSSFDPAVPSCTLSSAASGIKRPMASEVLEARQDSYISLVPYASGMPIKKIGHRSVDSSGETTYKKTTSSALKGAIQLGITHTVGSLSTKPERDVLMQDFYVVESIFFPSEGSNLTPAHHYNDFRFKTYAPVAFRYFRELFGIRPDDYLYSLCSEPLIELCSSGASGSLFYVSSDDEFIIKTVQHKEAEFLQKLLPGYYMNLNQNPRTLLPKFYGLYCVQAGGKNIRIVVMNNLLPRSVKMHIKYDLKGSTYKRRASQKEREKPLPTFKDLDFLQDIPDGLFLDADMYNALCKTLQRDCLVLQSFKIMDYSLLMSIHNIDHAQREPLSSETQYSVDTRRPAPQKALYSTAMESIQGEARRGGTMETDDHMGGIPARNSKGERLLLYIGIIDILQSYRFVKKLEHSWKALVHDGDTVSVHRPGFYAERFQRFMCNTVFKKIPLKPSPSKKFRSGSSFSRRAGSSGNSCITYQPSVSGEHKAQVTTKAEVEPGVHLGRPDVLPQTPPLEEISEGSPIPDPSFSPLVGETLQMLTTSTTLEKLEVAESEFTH
Sequence of Mitogen-activated protein kinase 10 (P53779 whole entry): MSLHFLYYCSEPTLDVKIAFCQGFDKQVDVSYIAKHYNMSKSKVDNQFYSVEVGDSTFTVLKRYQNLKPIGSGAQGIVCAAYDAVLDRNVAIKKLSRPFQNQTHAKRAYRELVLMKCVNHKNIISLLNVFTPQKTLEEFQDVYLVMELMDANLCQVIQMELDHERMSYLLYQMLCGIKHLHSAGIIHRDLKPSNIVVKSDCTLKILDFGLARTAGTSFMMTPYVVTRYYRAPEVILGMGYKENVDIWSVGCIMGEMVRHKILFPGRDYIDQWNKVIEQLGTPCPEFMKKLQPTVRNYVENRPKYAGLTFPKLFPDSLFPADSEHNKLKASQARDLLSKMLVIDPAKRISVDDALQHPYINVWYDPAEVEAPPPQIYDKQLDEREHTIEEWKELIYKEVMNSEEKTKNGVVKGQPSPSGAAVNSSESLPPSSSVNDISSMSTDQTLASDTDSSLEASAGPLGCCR

CCN1CCN(Cc2ccc(NC(=O)c3ccc(C)c(Oc4ccnc5[nH]ccc45)c3)cc2C(F)(F)F)CC1
inhibition [1]: 12%
inhibition [2]: 1.3%
inhibition [3]: 0.9%
percent of control [4]: 0.95%

CCN1CCN(Cc2ccc(NC(=O)c3ccc(C)c(/C=C/c4cnc5[nH]ccc5c4OC)c3)cc2C(F)(F)F)CC1
inhibition [5]: 76%
inhibition [6]: 100%
residual activity [7]: 60%
inhibition [8]: 37.6%
inhibition [9]: -8.2%
residual activity [10]: 21%
residual activity [11]: 100%
inhibition [12]: -10%
residual activity [13]: 5.7%

CNc1cc(Oc2cc(C(=O)Nc3cc(N4CCN(C)CC4)cc(C(F)(F)F)c3)ccc2C)ncn1
inhibition [14]: -1.2%
inhibition [15]: 0.6%
inhibition at 1 µM [16]: -44.2%
